From patent US8110217B2, “Sphingomyelin liposomes for the treatment of hyperactive bladder disorders” (priority 2001, dated 2012)

System: chemically induced bladder hyperactivity
Assay: Cystometrogram (CMG): liposomes of various lipids infused in the presence of KCl after protamine sulfate (Examples 1-4)
Type: in vivo, female Sprague-Dawley rats
Source text: Bladder reflex activity in thirty-four (34) female Sprague-Dawley rats (200-250 g) was studied by cystometry performed under anesthesia with urethane (1.2 g/kg) administered by subcutaneous injection. Body temperature was maintained in the physiologic range using a heating lamp. A transurethral bladder catheter (PE-50) connected by a three-way stopcock to a pressure transducer and to a syringe pump was used to record intravesical pressure and to infuse solutions into the bladder. A control cystometrogram (CMG) was performed by slowly filling the bladder with saline at a rate of 0.04 ml/min to elicit repetitive voiding. The bladder contraction frequency of the reflex bladder contractions were recorded. After performing control CMGs with saline infusion for 3 hours, protamine sulfate (PS) (Sigma Chemical; 10 mg/ml) was infused at a rate of 0.04 ml/min for 1 hour to increase epithelial permeability followed by infusion of the irritant KCl (500 mM) for 1 hour. Subsequently, liposomes made from lipids of various compositions then were infused in the presence of a high concentration of KCl for 2 hours.
The effect of charge on the lipid headgroup in reducing bladder activity in three animal groups (n=5) was determined. Neutrally charged liposomes prepared with L-α-PC (a zwitterionic lipid egg PC) were compared against liposomes having either a positively or negatively charged polar headgroup, namely, 1,2-dioleoyl-3-trimethylammonium-propane (DOTAP) and 1-α-phosphatidylserine (POPS), respectively.
Liposomes were prepared as described by Kirby and Gregoriadis (Kirby, C. J. and Gregoriadia, G., “A simple procedure for preparing liposomes capable of high encapsulation efficiency under mild conditions,” Liposome Technology, G. Gregnoriadis, Ed., C.R.C. Press, Inc., Boca Raton, Fla., 1984, Vol. 1, p. 20, 1984). Briefly, liposomes were constructed as a 2:1 molar ratio of L-α-phosphatidylcholine and cholesterol (Sigma Chemical Co., St. Louis, Mo.) to a final lipid concentration of 1-2 mg/ml in saline. Lipids in chloroform were dried down together in the proper ratio under nitrogen. The residues were reconstituted as liposomes in saline or 500 mM KCl by intense sonication. This lipid composition produced liposomes with no net charge.
Statistical analyses were performed using Student's t test for paired or unpaired data, where applicable. A P-value less than 0.05 was considered significant. All data were expressed as means±S.E. (standard error).
Neutrally charged liposomes prepared with sphingomyelin were compared against liposomes prepared from dihydrosphingomyelin and two pure synthetic lipids: 1,2-distearoyl-sn-glycero-3-phosphocholine (DSPC) and 1,-oleoyl-2-stearoyl-sn-glycero-3-phosphocholine (OSPC).
The methodology of this investigation is the same as described above in Example 1 with the exception that the preparation of liposomes was modified from Example 1. Briefly, liposomes were constructed as a 2:1 molar ratio of sphingomyelin and cholesterol (Sigma Chemical Co., St. Louis, Mo.) to a final lipid concentration of 1-2 mg/ml in saline. Lipids in chloroform were dried down together in the proper ratio under nitrogen. The residues were reconstituted as liposomes in saline or 500 mM KCl by intense sonication. This lipid composition produced sphingomyelin liposomes with no net charge.
Sphingomyelin devoid of its phosphorylcholine head group generates the molecule ceramide, a well known lipid second messenger which mediates a wide range of cellular responses to external stimuli, and also is used for the biosynthesis of sphingomyelin and glycosphingolipids. Because ceramide cannot form stable liposomes by itself, its effect on bladder hyperactivity was tested by including it at 1 mol % in an inert lipid, namely, 1,2-distearoyl-sn-glycero-3-phosphocholine (DSPC).
The methodology of this investigation is the same as described above in Example 1 with the exception that the preparation of liposomes was modified from Example 1. […]

[1] = included at 1 mol % in DSPC liposomes

cerebroside
effect on efficacy of DSPC liposomes in reducing bladder contraction frequency (DSPC/cerebroside and cholesterol liposomes): significantly increased the efficacy of DSPC

CCCCCCCCCCCCC/C=C/[C@@H](O)[C@@H](N)CO [sphingosine]
effect on efficacy of DSPC liposomes in reducing bladder contraction frequency [1]: had a similar effect

ceramide
effect on efficacy of DSPC liposomes in reducing bladder contraction frequency [1]: significantly increased the efficacy of DSPC
